Source: patent US4925835A, “Aziridinyl putrescine containing compositions and their uses in treating prostate cancer” (priority 1987, dated 1990)
Read-outs that look alike come from different tables or passages of the source.

Key:
[1] = tested on: PC-3 human prostatic carcinoma cell line; test: cells; type: cell-based; conditions: for Cell number as a percentage of the control mean cell number / Cell no.: 1 μM AZP; for Cell no.: mean ± SE; for activity at 1 µM / EC50: Homo sapiens, Prostatic carcinoma cell; for activity at 1 µM: 192 h
Method: FIG. 3. Effect of AZP on the growth of PC-3 cells with or without DFMO pretreatment. PC-3 cells (3×10^4) were plated in 60-mm^2 Petri dish in RPMI 1640-10% FCS and allowed to attach overnight. The following day the medium was aspirated and replaced with RPMI 1640, 10% FCS, 100 μM aminoguanidine with or without 1 mm DFMO. Forty-eight h later the medium was aspirated, the dishes were rinsed once with HBSS, and the cells were incubated with RPMI 1640-10% FCS-100 μM aminoguanidine with or without 25 μM AZP for 1 h. Following the 1-h incubation the medium was aspirated, the plates were rinsed twice with HBSS, and the incubation was continued with fresh RPMI 1640-10% FCS-100 μM aminoguanidine. At the indicated times following initial plating the cells were lifted from the plate by trypsinization and were examined for their ability to exclude trypan blue. Total cell counts were obtained with the aid of a hemocytometer, and the completeness of the removal of the cells from the dish was verified by the examination of each dish with the inverted microscope. , control; Δ, DFMO; .circle., AZP; .quadrature., DFMO+AZP. Points, means; bars, SE.
FIG. 4. Dose-effect relationship of AZP on the growth on PC-3 prostatic cancer cells. PC-3 cells (3×10^4) were plated in RPMI 1640-10% FCS in 60-mm^2 Petri dishes and allowed to attach overnight. The following day the medium was aspirated and replaced with RPMI 1640-10% FCS-100 μM aminoguanidine with or without 1 mm DFMO. Forty-eight h later the medium was aspirated, and the cells were rinsed once with HBSS and replaced with RPMI 1640-10% FCS-100 μM aminoguanidine with or without the indicated μM concentrations of AZP. After a 1-h incubation the medium was aspirated, the cells were rinsed twice with HBSS, and the incubation was continued with fresh RPMI 1640-10% FCS-100 μM aminoguanidine. Eight days following plating the cells were lifted from the plates by trypsinization and were counted with the aid of a hemocytometer and expressed as a percentage of control (100% without DFMO, 212±31×10^4; 100% with DFMO pretreatment, 219±25× 10^4 cells, respectively). , DFMO pretreated; .circle., without DFMO.
Assays of cell growth were performed by plating 3×10^4 PC-3 cells in RPMI 1640 medium with 10% FCS and allowing them to attach overnight. The following morning the medium was replaced with incubation medium consisting of RPMI 1640, 10% FCS, 100 μM aminoguanidine, 100 units/ml of penicillin, 100 μg/ml of streptomycin, and 2 mM glutamine, with or without 1 mM difluoromethylornithine. Two days later the medium was aspirated and replaced with or without 1-(4-aminobutyl) aziridine at the designated concentration usually for 1 h or for the designated length of time. Following the 1-h incubation, the medium of all groups was aspirated and the dishes were rinsed with HBSS and replaced with fresh incubation medium. Either daily or 8 days following plating, the Petri dishes were rinsed with HBSS and the cells were lifted from the plate by trypsinization. The dishes were examined for completeness of cell removal by examination with an inverted microscope. The cells were counted with a Zeiss microscope using a hemocytometer. Tumor cell population doubling time was determined by ploting the natural logarithm (ln) of the number of cells versus the days following plating. The slope of this line was determined using the Memorial Sloan-Kettering Cancer Center Clin computer system statistical analysis package. Doubling time (DT) was determined as ln 2/slope=DT. Statistical differences in cell number between groups were determined by Student's t statistic with the aid of the Memorial Sloan-Kettering Cancer Center Clin computer using the statistics program.
^a Thirty thousand PC3 cells were plated in 60mm^2 Petri dishes i
RPMI 164010% FCS. The next day the medium was aspirated and replaced with
RPMI 164010% FCS medium with 100 μM aminoguanidine with or without 1 m
DFMO. Fortyeight h later the medium was aspirated. […]

[2] = Alkylating activity with 4-(p-nitrobenzyl)pyridine; conditions: 100 nmol in 5.0 ml, 0.1M acetate, PH 4.5, 37° C., 2 h
Method: The preparation of 1-(4-aminobutyl) aziridine from 1,4-diaminobutane (putrescine) was performed by the three-step synthetic method reported by Piper et al. supra.
1-(4-aminobutyl) aziridine (100 nmol) produced an absorbance increase of 0.7 with 4-(p-nitrobenzyl)pyridine in 5.0 ml when incubated in 0.1M acetate, PH 4.5, at 37° C. for 2 h. […] The retention times were: putrescine, 19.6 min; 1-(4-aminobutyl) aziridine, 21.1 min; and histamine, 21.8 min.

[3] = 2 h incubation, DFMO pretreated, day 8
[4] = 4 h incubation, DFMO pretreated, day 8

With NCCCCN1CC1 [AZP, 1-(4-aminobutyl) aziridine] the “Cell number as a percentage of the control mean cell number” value (“Cell number as a percentage” for short) ([1]; 1 h incubation, DFMO pretreated, day 8) was 73%, the Cell no. ([1]; 1 h incubation, no DFMO (Control), day 8) was 236 ± 8 × 10^-4 and the “Cell number as a percentage” value [1, 3] was 52%. For the same compound, the Cell no. [1, 3] was 114 ± 10 × 10^-4, the Cell no. ([1]; 2 h incubation, no DFMO (Control), day 8) was 202 ± 11 × 10^-4 and the “Cell number as a percentage” value [1, 4] was 32%. For the same compound, the Cell no. [1, 4] was 70 ± 8 × 10^-4, the “Cell number as a percentage” value ([1]; 8 h incubation, DFMO pretreated, day 8) was about 9% and the Cell no. ([1]; 8 h incubation, no DFMO (Control), day 8) was 122 ± 16 × 10^-4. For the same compound, the “Cell number as a percentage” value ([1]; 24 h incubation, DFMO pretreated, day 8) was 0.9%, the Cell no. ([1]; 24 h incubation, no DFMO (Control), day 8) was 30 ± 11 × 10^-4 and the “Cell no. as a percentage of control” value ([1]; DFMO-pretreated PC-3 (1 mM, 48 h), single agent 1 h (Put 100 μM or AZP 10 μM), day 8) was 9%. The activity at 1 µM ([1]; read-out: Cell number as a percentage of the control mean cell number, 1 μM AZP, 1 h incubation, no DFMO (Control), day 8) was 98%, the activity at 1 µM ([1]; read-out: Cell number as a percentage of the control mean cell number, 1 μM AZP, 2 h incubation, no DFMO (Control), day 8) was 84% and the activity at 1 µM ([1]; read-out: Cell number as a percentage of the control mean cell number, 1 μM AZP, 4 h incubation, no DFMO (Control), day 8) was 66%. For the same compound, the activity at 1 µM ([1]; read-out: Cell number as a percentage of the control mean cell number, 1 μM AZP, 8 h incubation, no DFMO (Control), day 8) was 51%, the activity at 1 µM ([1]; read-out: Cell number as a percentage of the control mean cell number, 1 μM AZP, 24 h incubation, no DFMO (Control), day 8) was about 12% and the EC50 ([1]; read-out: 50% effective dose (cell growth), PC-3, 1 h exposure, counted 8 days after plating, 1 mM DFMO pretreatment 48 h) was 2.1 µM. For the same compound, the EC50 ([1]; read-out: 50% effective dose (cell growth), PC-3, 1 h exposure, counted 8 days after plating, without DFMO) was 18 µM, the “Cells per dish on day 8 following plating” value ([1]; PC-3, 3×10^4 plated, ±1 mM DFMO 48 h, ±25 μM AZP 1 h, mean±SD of triplicates) was 123±10 ×10^4 cells per dish and the Doubling time ([1]; PC-3, 25 μM AZP 1 h or 1 mM DFMO 48 h, mean±SE) was 1.53 ± 0.06 days. The “Growth-inhibitory activity toward PC-3 cells (in words)” value ([1]; brief 1-h exposure) was “definitely growth inhibitory” and the “Absorbance increase with 4-(p-nitrobenzyl)pyridine (alkylating activity)” value [2] was 0.7.
